# Measurements as given in US20090068290A1, “BIFEPRUNOX DOSES FOR TREATING SCHIZOPHRENIA” (priority 2006, published 2009).
# Experiments:
# Assay type in all cases: in vivo, human
# [1] = test system: adult subjects with schizophrenia; assay: Calgary Depression Scale for Schizophrenia (CDSS), Clinical Study Two; conditions: LOCF; for Change from Baseline in CDSS Total Score, Mean (SD) / Change from Baseline in CDSS Total Score, Median: 6 mg
# Protocol: Rating scale assessments were performed weekly, except for week 5, to measure the change from baseline to endpoint of the PANSS total score. Other assessments included: PANSS positive symptom subscale score, PANSS negative symptom subscale score, PANSS general pschopathology subscale score, BPRS total score, BPRS psychosis score, the CGI-S score, the CGI-I score, responder rates based on the PANSS total score, and the Calgary Depression Scale for Schizophrenia (CDSS). […]
# Subjects who completed this study had the option to continue in the long-term. […] Risperidone-treated subjects were titrated from 2 mg to 6 mg daily over a three-day period and were subsequently maintained at 6 mg/day for the remainder of the treatment period. […] Blood samples were also obtained at Screening/Baseline, Week 3, and Week 6 for clinical laboratory assessments.
# [2] = test system: adult subjects with schizophrenia; assay: PANSS total score, Clinical Study One (6-week, risperidone-referenced); conditions: for Change from Baseline in PANSS Total Score, Median / Change from Baseline in PANSS Total Score, Mean (S.D.): Risperidone 6 mg, ITT
# Protocol: There were five treatment groups in this study. […] Study medication was administered once daily. After Baseline measurements were performed, the titration phase was begun. Bifeprunox treated subjects were titrated up to 5 mg, 10 mg or 20 mg according to a standardized titration schedule (Day 1: 0.125 mg, Day 2: 0.25 mg, Day 3: 0.5 mg, Day 4: 1.0 mg, Day 5: 2.0 mg, Day 6: 5.0 mg, Day 7: 10.0 mg, Day 8: 20 mg). When the assigned dose was reached, subjects were maintained at that dose for the remainder of the six-week treatment period.
# Test Product. Dose and Mode of Administration: Bifeprunox tablets, total daily dose 0.125 mg to 20 mg administered orally using a once daily dosing regimen.
# The change in the Positive and Negative Symptom Scale (PANSS) total score, from baseline to endpoint, was the primary outcome measure. Secondary efficacy measures included: PANSS positive, PANSS negative, PANSS general psychopathology (GPP) score, PANSS-derived Brief Psychiatric Rating Scale (BPRS) score, Clinical Global Impressions-Severity of Illness (CGI-S), CGI-Improvement (CGI-I) scores, and responder rates. Safety and tolerability evaluations included extrapyramidal symptoms (EPS), weight gain, lipid profile, and serum prolactin.
# [3] = test system: adult subjects with schizophrenia; assay: SAS, BAS and AIMS movement scales, Clinical Study Two; conditions: Risperidone 6 mg
# Protocol: Pharmacokinetic (PK) data of bifeprunox in schizophrenic subjects were also assessed and are presented in a separate report (combined with data from study S1543003).
# The SAS is used to measure Parkinsonian-type symptoms in patients exposed to antipsychotics. The scale consists of 10 items, each rated on a 5-point scale ranging from 0 (complete absence of the condition) to 4 (presence of the condition in extreme form). The SAS total score is defined as the sum of all item scores, and the range is 0 to 40. A SAS total score of up to 3 is considered normal.
# The BAS is used to rate observable, restless movements of drug-induced akathisia as well as the subjective awareness of restlessness and any distress associated with the akathisia. The scale consists of 3 items that is rated from 0 (no evidence of akathisia) to 3 (severe akathisia). The BAS total score is defined as the sum of the these three BAS item scores and ranges from is 0 to 9. In addition, a global clinical assessment of akathisia is rated from 0 (no evidence of akathisia) to 5 (severe akathisia).
# The AIMS, designed to record the occurrence of dyskinetic movements, consists of 12 items. Items 1 to 7 measure specific involuntary movements on a scale from 0 (none) to 4 (severe). Items 8 to 10 measure global assessment of abnormal movement on a scale from 0 (no awareness) to 4 (aware, severe distress). Items 11 and 12 are questions regarding the dental condition of the patient, with yes/no answers. The total score is calculated by summing AIMS items 1 through 10 and ranges from 0 to 40; the non-global total score is calculated by summing items 1 through 7.
# [4] = Body weight, Clinical Study Two; conditions: Risperidone 6 mg
smiles,measurement,setting,value
"Cc1nc2n(c(=O)c1CCN1CCC(c3noc4cc(F)ccc34)CC1)CCCC2 [Risperidone, risperidone, reference compound]","Change from Baseline in CDSS Total Score, Mean (SD)",[1]; Week 1,−0.62 (2.42)
same,"Change from Baseline in CDSS Total Score, Median",[1]; Week 1,0.0
same,"Change from Baseline in CDSS Total Score, Mean (SD)",[1]; Week 2,−0.74 (2.71)
same,"Change from Baseline in CDSS Total Score, Median",[1]; Week 2,0.0
same,"Change from Baseline in CDSS Total Score, Mean (SD)",[1]; Week 3,−0.93 (3.41)
same,"Change from Baseline in CDSS Total Score, Median",[1]; Week 3,0.0
same,"Change from Baseline in CDSS Total Score, Mean (SD)",[1]; Week 4,−0.95 (3.08)
same,"Change from Baseline in CDSS Total Score, Median",[1]; Week 4,0.0
same,"Change from Baseline in CDSS Total Score, Mean (SD)",[1]; Week 6/Endpoint,−0.89 (3.42)
same,"Change from Baseline in CDSS Total Score, Median",[1]; Week 6/Endpoint,0.0
same,mean change (SD) from Baseline to Endpoint in CDSS score,"[1]; risperidone 6 mg, ITT",−0.89 (3.42)
same,"Change from Baseline in PANSS Total Score, Median",[2]; Endpoint LOCF,−14
same,"Change from Baseline in PANSS Total Score, Mean (S.D.)","[2]; Week 1, LOCF",−8.2 (11.1)
same,"Change from Baseline in PANSS Total Score, Median","[2]; Week 1, LOCF",−7
same,"Change from Baseline in PANSS Total Score, Mean (S.D.)","[2]; Week 2, LOCF",−13.1 (13.9)
same,"Change from Baseline in PANSS Total Score, Median","[2]; Week 2, LOCF",−12
same,"Change from Baseline in PANSS Total Score, Mean (S.D.)","[2]; Week 3, LOCF",−15.3 (14.1)
same,"Change from Baseline in PANSS Total Score, Median","[2]; Week 3, LOCF",−13
same,"Change from Baseline in PANSS Total Score, Mean (S.D.)","[2]; Week 4, LOCF",−14.4 (14.5)
same,"Change from Baseline in PANSS Total Score, Median","[2]; Week 4, LOCF",−13
same,all efficacy measures at endpoint compared to placebo,[2]; risperidone 6 mg (Example 4),statistically significant at endpoint compared to placebo for all efficacy measures
same,separation of active reference from placebo,"[2]; risperidone 6 mg, 6 weeks",showed clear separation from the placebo group
same,subjects with abnormal SAS scores at Endpoint,[3],14%
same,"Weight, Baseline Mean of subjects with Endpoint change",[4],174.5 lbs
same,"Weight, Baseline Mean of subjects with Week 6 change",[4],166.6 lbs
same,"Weight, Baseline, Max",[4],404 lbs
same,"Weight, Baseline, Mean (SD)",[4],174.3 (58.5) lbs
same,"Weight, Baseline, Median",[4],170 lbs
same,"Weight, Baseline, Min",[4],82 lbs
same,"Weight, Change from Baseline at Endpoint, Max",[4],33 lbs
same,"Weight, Change from Baseline at Endpoint, Mean (SD)",[4],3.2 (7.4) lbs
same,"Weight, Change from Baseline at Endpoint, Median",[4],2 lbs
same,"Weight, Change from Baseline at Endpoint, Min",[4],−20 lbs
same,"Weight, Change from Baseline at Week 6, Max",[4],33 lbs
same,"Weight, Change from Baseline at Week 6, Mean (SD)",[4],4.1 (7.6) lbs
same,"Weight, Change from Baseline at Week 6, Median",[4],2 lbs
same,"Weight, Change from Baseline at Week 6, Min",[4],−12 lbs
same,mean weight change at Endpoint,[4],3.2 lbs
